Experiment [1] concerns T-47D human mammary cancer cells. Description: MTT test, proliferation of T-47D. The format is cell-based. The note with it: for activity at 100 µM / activity at 1 µM / activity at 0.01 µM: Homo sapiens, T47D, T-47D, 72 h, control = 100%, read-out: level of proliferation; for activity at 100 µM: 10^-4 M; for activity at 1 µM: 10^-6 M; for activity at 0.01 µM: 10^-8 M. The essentials:
(§1)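 Cells grown at 37° C in MEM/5% FCS were plated for 24 h, then treated at 10^-8, 10^-6 or 10^-4 M. Each condition was run in 6 duplicates.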
(In general: Tetrazolium assays rely on reduction of a dye to a coloured formazan, in cell work by metabolically active cells.)

Experiment [2] deals with RARE, endogenic RAR and RXR receptors, HRL+N lineage. Description: HRL+N transactivation (RARE-luciferase, stably transfected HeLa). The format is cell-based. Also noted: Emax: dose or concentration left out as unconfirmed. The note with it: for Emax: Homo sapiens, HeLa. The method, then:
MCF-7 cells and HeLa are cultivated in DMFM with phenol red to which 5% foetal calf serum is added. The T47-D cells are cultivated in RPMI to which 10% foetal calf serum is added. The experimental tests are carried out in DMEM without phenol red to which foetal calf serum treated with dextran carbon is added at 3%. […] The experiments using the different retinoids are carried out sheltered from the light so as to avoid any isomerisation.
Certain properties of the retinoids have been determined using more developed cellular models. These models consist of cellular lineages transfected in a stable fashion by recombinant plasmids which place the expression of the gene of the luciferase under the control of different nuclear response elements. […] The tests carried out in duplicate are described below for each of these models.
The cellular lineages HRLN and HRL+N allow one to study the activation of an RARE by endogenic receptors using ligands at physiological concentrations. These lineages derive from HeLa cells transfected in a stable fashion by a reporter gene which places the expression of the gene of the luciferase under the control of a nuclear response element RARE (RARE3 -tk-Luc). The HeLa cells express all the known receptors of the retinoic acid (RARα,β,γ and RXRα,β,γ) with a predominance of RARα and RXRα. The response element RARE used for the HRLN cells corresponds to the sequence of the natural gene of the RARβ receptor (GGTTCAnnnnnAGTTCA). The HRL+N cells comprise the sequence GAGTGAnnnnnCGGTGA.
The HRL+N lineage allows one to visualise a co-activation of the RAR and RXR receptors at the level of the RAR-RXR hetero-dimer.

Experiment [3] concerns ERE-βGlob-Luc, MELN lineage (MCF-7). As to the kind of experiment: Anti-oestrogenic effect, MELN lineage activated by estradiol. It counts as cell-based, human. The note with it: for inhibition at 0.1 µM / inhibition: Homo sapiens; for anti-oestrogenic effect (in words): estradiol-activated MELN cells; for inhibition: 10^-6 M. The essentials: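 Run in duplicate on estradiol-activated (10^-9 M) MELN cells, MCF-7 stably transfected with ERE-βGlobin-luciferase reporter. Values are percentages of the estradiol response after deducting basal level, defined by 1 μM hydroxytamoxifen.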

The test system of experiment [4] is response element RARE of RARβ gene, endogenic retinoic receptors, HRLN lineage. Description: HRLN transactivation (RARE-luciferase, stably transfected HeLa). The format is cell-based. The settings on record: for Emax: Homo sapiens, HeLa, read-out: HRLN transactivation, E max. The essentials: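 Luciferase reporter read-out, in duplicate and shielded from light, in phenol red-free DMEM plus 3% dextran-charcoal-stripped FCS. The HeLa-derived line expresses endogenous retinoid receptors and stably harbours luciferase under the natural RARβ-gene RARE (RARE3-tk-Luc).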

For experiment [5], the system named is Gal4-RAR (RARα, RARβ, RARγ). As to the kind of experiment: Chimerical receptors Gal4-RAR, overall profile. It counts as cell-based.
For another experiment, the system named is Gal4-RARα. As to the kind of experiment: Transactivation, chimerical receptor Gal4-RARα (transitory transfection of HeLa). It counts as cell-based. The settings on record: 100% = TTNPB 10^-8 M.
The test system of experiment [6] is ZR-75-1 human mammary cancer cells. As to the kind of experiment: MTT test, proliferation of ZR-75-1. The format is cell-based. The note with it: for activity at 100 µM / activity at 1 µM / activity at 0.01 µM: Homo sapiens, 72 h, control = 100%, read-out: level of proliferation; for activity at 100 µM: ZR-75-1, 10^-4 M; for activity at 1 µM: ZR-75-1, 10^-6 M; for activity at 0.01 µM: ZR-75-1, 10^-8 M. The essentials:
as §1

The subject of experiment [7] is A-427 human pulmonary cancer cells. Description: MTT test, proliferation of A-427. The settings on record: for activity at 1 µM / activity at 100 µM / activity at 0.01 µM: Homo sapiens, A-427, 72 h, read-out: level of proliferation.
The next experiment concerns Gal4-RARγ. As to the kind of experiment: Transactivation, chimerical receptor Gal4-RARγ (transitory transfection of HeLa). The format is cell-based. The note with it: 100% = TTNPB 10^-8 M.
A further experiment relates to T-47D cells. As to the kind of experiment: Effect on oestrogen-induced proliferation of T-47D cells. The format is cell-based, human. The settings on record: 7 days; for activity at 1 µM: Homo sapiens, T47D, 168 h, 10^-6 M, 100% = E2 10^-9 M, read-out: growth of T-47D cells.
The mark [8] stands for this setting: MCF7, cells activated by 10^-9 M estradiol.
Where [9] appears, read: read-out: HRL+N transactivation, E max (Table 27).
[10] abbreviates: MCF7, 10^-7 M, cells activated by 10^-9 M estradiol, read-out: anti-oestrogenic effect, inhibition.

“Also recorded” adds a separate entry of the source. Where two headings read alike, the source gives them in different places.

Broadly, the inhibition is the percentage by which the read-out fell short of the control. With `CC1=C(/C=C/C(C)=C/C=C/C(C)=C/C(=O)O)C(C)(C)CCC1` [CB16178, all-trans retinoic acid, reference compound], the activity at 100 µM in experiment [1] turned out to be 1.8%; in experiment [6], 7.3%; in [7] it was 1.5%. Further, the activity at 1 µM came to 52.6% in experiment [1], 57.2% in experiment [6] and 68.2% in experiment [7]. The results for the activity at 0.01 µM in experiment [1] and in experiment [6] were 77.2% and 46.9%, respectively. The “effect on cellular increase, T-47D (in words)” value in experiment [1] (MTT test) is “inhibit the cellular increase of the two mammary lineages at the concentrations tested”. In addition, the Emax in [2] (read-out: HRL+N transactivation, Emax) worked out at 225%. In experiment [3] (MCF7, read-out: anti-oestrogenic effect, inhibition), the inhibition at 0.1 µM was found to be 35%. The “anti-oestrogenic effect (in words)” value in experiment [3] is “reduces the cellular growth and the expression of oestrogen-dependent genes”. The “HRLN transactivation (in words)” value in experiment [4] is reported as “induce a dose-dependent activation”. Besides, the “Gal-RAR agonist profile (in words)” value in experiment [5] was “good RAR agonists”. For the same molecule, the results for the “GAL4-RAR RARα transactivation” value in the experiment with Gal4-RARα (10^-6 M), in the experiment on Gal4-RARα (10^-7 M) and in the experiment on Gal4-RARα (10^-8 M) were 108%, 102% and 82%, respectively. In addition, the “effect on cellular increase, ZR-75-1 (in words)” value in experiment [6] (MTT test) is “inhibit the cellular increase of the two mammary lineages at the concentrations tested”.
In the case of `C/C(=C/c1ccc2c(c1)C(C)(C)CCC2(C)C)c1ccc(C(=O)O)nc1` [CB16279, (Z) 5-[1-(5,6,7,8-tetrahydro-5,5,8,8-tetramethyl-2-naphthalenyl)-2-propenyl]pyridinyl-2-carboxylic acid], the “GAL4-RAR RARγ transactivation” value in the experiment with Gal4-RARγ (10^-6 M) is 59%. The “HRL+N transactivation (in words)” value in experiment [2] is recorded as “bring about a transactivation greater than RAR selective agonists (TTNPB)”. In experiment [3] (setting [8]), this molecule gave an inhibition of 32%. Further, the “anti-oestrogenic effect (in words)” value in experiment [3] is “permit a transrepression of a controlled gene by an ERE”. Besides, the “HRLN transactivation (in words)” value in [4] is “induce a transactivation close to that of TTNPB”. Moreover, in experiment [5], the “Gal-RAR agonist profile (in words)” value was “partial agonists at 1 μM for the three RAR receptors”. In addition, in the experiment with Gal4-RARα (10^-6 M), the “GAL4-RAR RARα transactivation” value is reported as 33%. Further, the activity at 1 µM with T-47D cells came out at 84%.
For `C/C(=C/c1ccc2c(c1)C(C)(C)CCC2(C)C)c1ccc(C(=O)O)cc1` [CB28628, reference compound], the “GAL4-RAR RARγ transactivation” value in the experiment with Gal4-RARγ (10^-7 M) was 106%. Also, the activity at 100 µM in experiment [1] was 4%; in experiment [6], 19.4%; in experiment [7], 2.5%. In addition, the activity at 1 µM in experiment [1] worked out at 59.3%; in [6] it was 83.5%; in the experiment on T-47D cells it was 33%; in [7], 86.8%. In addition, the activity at 0.01 µM in experiment [1] is 93.2%; in [6], 80.8%; in experiment [7] it was 86.7%. For the same molecule, in experiment [2], the “HRL+N transactivation (in words)” value was “induces a transactivation maximum greater than that of TTNPB”. Moreover, the results for the Emax in experiment [2] (setting [9]) and in experiment [4] were 158% and 98%, respectively. The molecule also had an inhibition in [3] (setting [8]) of 29 to 41%. Further, in experiment [3] (setting [10]), the inhibition at 0.1 µM came out at 31%. Also, the “Gal-RAR agonist profile (in words)” value in [5] was “completely agonistic for the three types of RAR receptors”. For the same molecule, the “GAL4-RAR RARα transactivation” value in the experiment on Gal4-RARα (10^-7 M) amounted to 103%. Also, the “inhibition of growth (of the order of)” value in the experiment with T-47D cells (estradiol 10^-9 M) was about 70%.
On to `C/C(=C/c1ccc2c(c1)C(C)(C)CCC2(C)C)c1ccc(C(=O)O)cn1` [CB38416, (Z) 2-[1-(5,6,7,8-tetrahydro-5,5,8,8-tetramethyl-2-naphthalenyl)-2-propenyl]pyridinyl-5-carboxylic acid], for which the “GAL4-RAR RARγ transactivation” value in the experiment with Gal4-RARγ (10^-6 M) is 99%. Further, the figures for the activity at 100 µM in experiment [1], in experiment [6] and in experiment [7] were 42.5%, 55.8% and 24.1%, respectively. In addition, the activity at 1 µM in experiment [1] is 82.6%; in experiment [6] it was 98.3%; in the experiment with T-47D cells, 50 to 60%; in [7], 105%. For the same molecule, the activity at 0.01 µM worked out at 119% in experiment [1], 122% in experiment [6] and 106% in experiment [7]. The “HRL+N transactivation (in words)” value in experiment [2] is “bring about a transactivation greater than RAR selective agonists (TTNPB)”. Also, the Emax in experiment [2] (setting [9]) is 131%; in experiment [4], 81%. Further, the inhibition in experiment [3] (setting [8]) was found to be 19%. Also, the inhibition at 0.1 µM in experiment [3] (setting [10]) is 0%. Moreover, the “anti-oestrogenic effect (in words)” value in experiment [3] was “permit a transrepression of a controlled gene by an ERE”. Also, the “HRLN transactivation (in words)” value in experiment [4] was “induce a transactivation close to that of TTNPB”. In experiment [5], the “Gal-RAR agonist profile (in words)” value was “partial agonist for RARα and RARβ but complete for RARγ”. Further, the “GAL4-RAR RARα transactivation” value with Gal4-RARα (10^-6 M) was found to be 58%.
On to `CC1(C)CCC(C)(C)c2cc(/C=C(\c3ccc(-c4nnn[nH]4)cc3)C(F)(F)F)ccc21` [CB77402, (E) 5-[4-[1-trifluoromethyl-2-(5,6,7,8-tetrahydro-5,5,8,8-tetramethyl-2-naphthalenyl)-1-ethenyl]phenyl]-1H-tetrazole], for which the “GAL4-RAR RARγ transactivation” value in the experiment with Gal4-RARγ (10^-6 M) is given as 0%. Further, in experiment [1], the activity at 100 µM amounted to 15.4%, the activity at 1 µM amounted to 118% and the activity at 0.01 µM came out at 128%. In addition, in experiment [2], the “HRL+N transactivation (in words)” value is “weak transactivation, less than that of TTNPB; also recorded: with a specific RAR agonist induces a stronger transactivation than that observed for each compound tested separately”. The Emax in experiment [2] (setting [9]) was 33%. This molecule also showed an inhibition in [3] (setting [8]) of 0%. Moreover, in experiment [3], the “anti-oestrogenic effect (in words)” value was “inactive”. Also, in experiment [4], the “HRLN transactivation (in words)” value is listed as “very feebly active” and the Emax stood at 18%. Also, the “Gal-RAR agonist profile (in words)” value in [5] was “not RAR agonists”. In addition, the “GAL4-RAR RARα transactivation” value with Gal4-RARα (10^-6 M) is 6%. Also, in experiment [6], the activity at 100 µM is 7.5%, the activity at 1 µM came to 96.6% and the activity at 0.01 µM was found to be 99.9%. Besides, in experiment [7], the activity at 0.01 µM was 82.3%, the activity at 1 µM is 77.6% and the activity at 100 µM was found to be 0.2%. Also, the “effect on cellular increase, A-427 (in words)” value in experiment [7] (MTT test) is reported as “show activity on the increase of these two lineages”.

The values are drawn from patent US6265423A, “Aromatic polycyclic retinoid-type derivatives, method for preparing same, and use thereof for making pharmaceutical and cosmetic compositions” (priority 1996, dated 2001).
